Patent US5605921A, “Triazole derivatives and salts thereof, and antifungal agent containing the same” (Toyama Chemical Co., Ltd., priority 1991, dated 1997)
Values after ≈ are worked out from the molar mass of the structure shown.

Experiments:
[1] = Acute toxicity in mice, intravenous; type: in vivo; conditions: intravenous at the tail, ICR strain male mice, group of 5; 50% solution in polyethylene glycol 300
Experimental: Each of the compounds of Examples 10, 12, 19, 79, 142 and 146 was administered to a group of 5 ICR strain male mice (weight: 29-31 g) intravenously at the tails, and the acute toxicity of each compound was examined.
Each compound was administered in the form of a 50% solution in polyethylene glycol 300.

[2] = test system: Candida albicans ON28; assay: Therapeutic effect, oral, mice infected with Candida albicans ON28 (3), Table 2c; type: in vivo, ICR strain male mice infected with Candida albicans ON28; conditions: average survival days of Ketoconazole taken as 100; Candida albicans 5.7×10^6 cells/mouse i.v.; 0.1 mg/mouse oral, 2 hours after infection; 10 days observation; 10 mice
Experimental: (3) The therapeutic effects of the present compounds, when they were administered orally, were examined using mice infected with Candida albicans ON28.
(§1) Candida albicans ON28 was injected in a proportion of 5.7×10^6 cells/mouse to a group of 10 ICR strain male mice (weight: 19-21 g) intravenously at the tails, whereby the mice were infected with the fungi. […] The relative therapeutic index of the test compound was determined from the average survival days.
The results are shown in Table 2c, in which the relative therapeutic index of each test compound is a value calculated by taking the average survival days Ketoconazole as 100.

[3] = test system: Candida albicans ON28; assay: Therapeutic effect, oral, mice infected with Candida albicans ON28 (1), Table 2a; type: in vivo, ICR strain male mice infected with Candida albicans ON28; conditions: average survival days of Ketoconazole taken as 100; Candida albicans 3.5×10^6 cells/mouse i.v.; 0.1 mg/mouse oral, 2 hours after infection; 10 days observation; 5 mice
Experimental: (1) The therapeutic effects of the present compounds, when they were administered orally, were examined using mice infected with Candida albicans ON28.
as §1, with “3.5×10^6” for “5.7×10^6”, “5” for “10”
The results are shown in Table 2a, in which the relative therapeutic index of each test compound is a value calculated by taking the average survival days Ketoconazole as 100.

[4] = test system: Aspergillus fumigatus IFO8868; assay: Therapeutic effect, oral, mice infected with Aspergillus fumigatus IFO8868 (4), Table 2d; type: in vivo; conditions: average survival days of Ketoconazole taken as 100; Aspergillus fumigatus 5.8×10^6 cells/mouse i.v.; 0.8 mg/mouse oral, 2 hours after infection and once daily for six consecutive days; 10 days observation; 10 mice
Experimental: (4) The therapeutic effects of the present compounds, when they were administered orally, were examined using mice infected with Aspergillus fumigatus IFO8868.
as §1, with “Aspergillus fumigatus IFO8868” for “Candida albicans ON28”, “5.8×10^6” for “5.7×10^6”
The results are shown in Table 2d, in which the relative therapeutic index of each test compound is a value calculated by taking the average survival days of Ketoconazole as 100.

[5] = test system: Aspergillus fumigatus IFO8868; assay: Therapeutic effect, oral, mice infected with Aspergillus fumigatus IFO8868 (2), Table 2b; type: in vivo; conditions: average survival days of Ketoconazole taken as 100; Aspergillus fumigatus 3.6×10^6 cells/mouse i.v.; 0.8 mg/mouse oral, 2 hours after infection; 10 days observation; 5 mice
Experimental: (2) The therapeutic effects of the present compounds, when they were administered orally, were examined using mice infected with Aspergillus fumigatus IFO8868.
as §1, with “Aspergillus fumigatus IFO8868” for “Candida albicans ON28”, “3.6×10^6” for “5.7×10^6”, “5” for “10”
The results are shown in Table 2b, in which the relative therapeutic index of each test compound is a value calculated by taking the average survival days of Ketoconazole as 100.

[6] = test system: Candida albicans ON28; assay: Minimum inhibitory concentration (MIC) against Candida albicans ON28; type: cell-based; conditions: ON28, 72 h, TC broth medium, 10^4 spores/ml, 37° C., 3 days
Experimental: (§2) MIC was determined in accordance with the method of M. S. Marriott [25th Interscience Conference on Antimicrobial Agents and Chemotherapy, p. 243 (1985)].
(§3) Candida albicans ON28 was cultured in a sabouraud dextrose agar medium containing 10 g of neopeptone, 20 g of glucose and 15 g of agar per liter, at 30° C. for 1-2 days. The yeast cells were suspended in sterile distilled water. Separately, Aspergillus fumigatus IFO8868 was cultured in a potato dextrose agar medium (manufactured by Nissui Pharmaceutical Co., Ltd.) at 30° C. until the conidia were formed abundantly. The formed conidia were suspended in a sterile physiological saline containing 0.1% of Tween 80. Each of the Candida albicans suspension and the Aspergillus fumigatus suspension was inoculated into a TC broth medium (containing 1.17 g of an yeast carbon base, 0.25 g of ammonium sulfate, 2.0 ml of a 50-fold concentrate of L-glutamic acid-containing MEM amino acid, 20 ml of a 0.5M phosphate buffer of pH 7.5 and 1.33 ml of 7.5% sodium hydrogencarbonate per 100 ml) containing a test compound, so that the final fungal amount became 10^4 spores/ml. Then, culture was conducted at 37° C. for 3 days. Thereafter, the growth of fungi was examined. The minimum concentration of test compound at which the growth of fungi had been inhibited, was taken as MIC (μg/ml).

[7] = test system: Aspergillus fumigatus IFO8868; assay: Minimum inhibitory concentration (MIC) against Aspergillus fumigatus IFO8868; type: cell-based; conditions: IFO8868, 72 h, TC broth medium, 10^4 spores/ml, 37° C., 3 days
Experimental: as §2, §3

| Structure (SMILES) | dose up to which no dead case occurred (acute toxicity) [1] | Relative therapeutic index [2] | Relative therapeutic index [3] | Relative therapeutic index [4] | Relative therapeutic index [5] | MIC [6] | MIC [7] |
| --- | --- | --- | --- | --- | --- | --- | --- |
| CCNC(=O)C(F)(F)C(O)(Cn1cncn1)c1ccc(F)cc1F (centres unmarked) [Example 12] | ≥ 100 mg/kg | 445 | 440 | 237 | 150 | 0.2 µg/mL (≈ 0.578 µM) | 25 µg/mL (≈ 72.2 µM) |
| O=C(NC1CC1)C(F)(F)C(O)(Cn1cncn1)c1ccc(F)cc1F (centres unmarked) [Example 19] | ≥ 100 mg/kg | 405 | 625 | 253 | 164 | 0.1 µg/mL (≈ 0.279 µM) | 50 µg/mL (≈ 140 µM) |
| O=C(NC1CC1)C(F)(F)C(O)(Cn1cncn1)c1ccc(F)cc1Cl (centres unmarked) [Example 30] | – | 414 | 355 | 358 | 207 | 0.2 µg/mL (≈ 0.534 µM) | 12.5 µg/mL (≈ 33.4 µM) |
